Data published in patent EP0767778B1, “1-PHENOXY-3-N-ALKYLAMINOPROPAN-2-OL HALOGEN DERIVATIVES USEFUL AS MYOCARDIAL beta [sequence] RECEPTOR MARKERS AND AS beta-BLOCKING AGENTS” (CIS BIO INTERNATIONAL, priority 1994, dated 1996).
Where two headings read alike, the source gives them in different places.

Experiments:
[1] = molecular target: récepteurs β adrénergiques; assay: displacement of [^3H]CGP 12177 previously bound on newborn rat cardiomyocytes; format: binding, rats nouveau-nés; details: read-out: CI50 (the source's name)
Text: Dans cet exemple, on teste l'affinité du composé 6 marqué avec ^123I vis-à-vis des récepteurs β adrénergiques.
On étudie sur cardiomyocytes de rats nouveau-nés la capacité du composé 6 à déplacer le [^3H]CGP 12177 préalablement fixé sur les récepteurs.

[2] = system: récepteurs β adrénergiques; assay: isolated perfused rat heart (Langendorff), antagonism of isoprenaline on dP/dt max
Experimental: Dans cet exemple, on teste la propriété pharmacologique antagoniste du composé 6 vis-à-vis des récepteurs β adrénergiques.
L'expérience est conduite sur coeur de rat isolé et perfusé selon la technique de Langendorff.
Après une préperfusion de 25 minutes avec une solution de Krebs-Henseleit, le coeur est perfusé avec de l'isoprénaline à la concentration de 10^-8M pendant 10 minutes; puis avec une solution d'isoprénaline à 10^-8M associée à la molécule à tester à la concentration de 10^-6M.
Si la molécule à tester diminue la dP/dt max en présence d'isoprénaline, on pourra affirmer que cette molécule se comporte comme un antagoniste de l'isoprénaline vis-à-vis des récepteurs β adrénergiques.

[3] = biodistribution study in the mouse (Example 22); format: in vivo, souris; details: for Biodistribution Coeur / Biodistribution Poumon: souris swiss femelles, injection intraveineuse
Experimental: L'étude de la biodistribution des radioligands chez la souris, permet d'apprécier l'intensité relative de la fixation cardiaque de la molécule et son évolution dans le temps.
Après marquage à l'iode 123 et purification par CLHP 20µCi environ de produit sont mis en solution dans 5 ml d'une solution : éthanol 20%-sérum physiologique 80%. Après injection intraveineuse de 25 µl de cette solution dans la queue de souris vigiles (souris swiss femelles de 20 à 25 g), celles-ci (5 à chaque fois) sont sacrifiées à différents temps après l'injection. On mesure pour chaque souris les activités cardiaques, hépatique, rénale et pulmonaire. Les résultats sont exprimés en pourcentage de la dose injectée par gramme d'organe.
Le CGP12177 étant la référence, un lot de souris a été étudié après injection de CGP 12177 marqué au tritium.

[4] = octanol-water partition coefficient at room temperature; format: physicochemical; details: température ambiante
[5] = radioactivity in organs after injection in the mouse (Example 10); format: in vivo; details: souris, 329.10^-12 mol
Text: Dans cet exemple, on teste chez la souris les propriétés du [^123I] - composé 6 comme traceur radioactif pour l'examen du myocarde.
Après injection de 500.10^-12 mol de [^123I]-composé 6, les animaux sont sacrifiés et les organes d'intérêt récupérés et comptés. Le tableau 3 qui suit reporte les valeurs de la radioactivité trouvée dans les organes ou liquides biologiques exprimées en pourcentage de la dose injectée par gramme d'organe. TABLEAU 3 :
Dans le tableau 4 qui suit, on a donné à titre comparatif les résultats obtenus lorsqu'on injecte 329.10^-12 mol de [^3H]CGP 12177.

[6] = [^3H]CGP 12177 5.10^-9M, 30 minutes d'incubation, cardiomyocytes de rats nouveau-nés

## CC(C)NCC(O)COc1ccc(CC(N)=O)cc1 (stereo not shown) [atenolol, reference compound]
[1]; [6]
  IC50: 19000 nM

## CC(C)NCC(O)COc1ccc(NC(=O)CCC=CI)cc1 (stereo not shown) [composé 6, 1-[4-(4-iodobut-3-énamido)phénoxy]-3-N-isopropyl aminopropan-2-ol]
[2]; Isoprénaline + molécule (10^e+8 min), isoprénaline 10^-8M, test molecule 10^-6M, n=6
  DP/dt max: 973±240 mmHg/min
[2]; effet antagoniste, summary
  pourcentage d'inhibition vis-à-vis de l'isoprénaline: 116%
[2]; isoprénaline 10^-8M + molecule 10^-6M
  effect on the action of isoprénaline on dP/dt max: antagonise complètement l'action de l'isoprénaline
[1]; [6]
  IC50: 2000 nM
[1]; summary, unit inferred
  IC50: 2040 nM

## (2S)-4 (3-t-butylamino-2-hydroxypropoxy)-benzimidazol-2-one [[^3H]-CGP 12177, reference compound]
[3]; 1 min.
  Biodistribution Coeur: 9 ± 1,4 pourcentage de la dose injectée par gramme d'organe
  Biodistribution Poumon: 66,3 ± 9,2 pourcentage de la dose injectée par gramme d'organe
[3]; 2 min.
  Biodistribution Coeur: 7,2 ± 0,9 pourcentage de la dose injectée par gramme d'organe
  Biodistribution Poumon: 44,3 ± 8,6 pourcentage de la dose injectée par gramme d'organe
[3]; 5 min.
  Biodistribution Coeur: 7,0 ± 1 pourcentage de la dose injectée par gramme d'organe
  Biodistribution Poumon: 37,9 ± 9,3 pourcentage de la dose injectée par gramme d'organe
[3]; 10 min.
  Biodistribution Coeur: 6,7 ± 1,3 pourcentage de la dose injectée par gramme d'organe
  Biodistribution Poumon: 42 ± 8,5 pourcentage de la dose injectée par gramme d'organe
[3]; souris, plateau dès la 2ème minute après l'injection
  activité dans le myocarde (plateau): ~7 % de la dose injectée par gramme d'organe
[4]; pH=4,2
  COEFFICIENT DE PARTAGE OCTANOL-EAU: 0,0088
[4]; pH=7,4
  COEFFICIENT DE PARTAGE OCTANOL-EAU: 0,18
[5]; 1 min
  radioactivité COEUR: 6,8±4 pourcentage de la dose injectée par gramme d'organe
  radioactivité POUMON: 26,3±2,1 pourcentage de la dose injectée par gramme d'organe
[5]; 2 min
  radioactivité COEUR: 6,3±0,3 pourcentage de la dose injectée par gramme d'organe
  radioactivité POUMON: 31,6±6,8 pourcentage de la dose injectée par gramme d'organe
[5]; 5 min
  radioactivité COEUR: 5,9±0,8 pourcentage de la dose injectée par gramme d'organe
  radioactivité POUMON: 29,7±5,8 pourcentage de la dose injectée par gramme d'organe
[5]; 10 min
  radioactivité COEUR: 5,3±0,2 pourcentage de la dose injectée par gramme d'organe
  radioactivité POUMON: 29±5,1 pourcentage de la dose injectée par gramme d'organe
